Series [1] is described as follows: Compound toxicity in the attachment assay, sister plate, XTT or MTS (Example 2). As to conditions: human, HeLa CD4 LTR β-gal cells, read-out: Attachment Assay TC50. In kind it is cell-based. Here is the method:
(§1) This assay detects compounds that block virus attachment using HeLa CD4 LTR β-gal cells. HeLa CD4 LTR β-gal cells were cultured with selection antibiotics. Twenty-four h prior to initiation of the assay, the cells were trypsinized, counted and plated in a 0.2 cm well in media without selection antibiotics. At 24 h media is removed and compound in media placed on the cells and incubated for 15 min at 37° C. A known titer of the IIIB strain of HIV-1 was then added to the wells and the incubation continued for 1 to 2 h. At the end of the incubation the wells were washed 2 times with media and the culture continued for 40 to 48 h. At termination of the assay, media is removed and β-galactosidase enzyme expression determined by chemiluminescence per manufacturer's instructions (Tropix Gal-screen, Bedford Mass.). Compound toxicity is monitored on a sister plate by XTT or MTS dye reduction. All determinations are performed in triplicate with serial_Log10 dilution of the test materials. The virus adsorption interval of 1 to 2 h was sufficiently short that AZT, which requires phosphorylation to achieve its active tri-phosphate form (AZT-TTP), is not active in this assay.
For orientation: Formazan colour is commonly taken as a measure of viable cells.

The subject of series [2] is HeLa CD4 LTR β-gal cells. Described as above. In kind it is cell-based. As to the method: as §1

The structures appear in SMILES notation.

On to `Cc1c(O)cc(C(C)(C)CCCC(C)C)cc1O` [IMG510, 2-Methyl-5-(1,1,5-trimethylhexyl)resorcinol], for which the CC50 in series [1] is above 10 µM.
Consider `CC1=CCC2C(C1)c1c(O)cc(C(C)(C)CCCC(C)C)cc1OC2(C)C` (stereo not drawn) [IMG509, 3-Norpentyl-3-(1,1,5-trimethylhexyl)-Δ8-tetrahydrocannabinol], for which, in series [1], the CC50 was above 10 µM.
In the case of `Cc1ccc2c(c1)-c1c(O)cc(C(C)(C)CCCC(C)C)cc1OC2(C)C` [IMG511, 3-Norpentyl-3-(1,1,5-trimethylhexyl)cannabinol], in series [2], the “Attachment Assay TC50” value is above 67 µM.
